From the supplement of paper PMC13207355
Counter-ions that a name gives are not always drawn.

Assays:
Conditions in all cases: exposure time: 72 h
E13 [1] = patient-derived glioblastoma stem cells of classical subtype; test: surviving fraction (nuclei count normalised to DMSO); higher = more cells surviving (less toxic)
E21 [2] = patient-derived glioblastoma stem cells of mesenchymal subtype; test: as above
E28 [3] = patient-derived glioblastoma stem cells of classical subtype; test: as above
E31 [4] = patient-derived glioblastoma stem cells of proneural subtype; test: as above
E34 [5] = patient-derived glioblastoma stem cells of proneural subtype; test: as above
E57 [6] = patient-derived glioblastoma stem cells of mesenchymal subtype; test: as above
FT3469 [7] = normal neural stem cell line; test: as above
E13 [8] = test: phenotypic distance (Euclidean, principal components) from DMSO controls (arbitrary units); higher = stronger morphological change
E21 [9] = test: as above
E28 [10] = test: as above
E31 [11] = test: as above
E34 [12] = test: as above
E57 [13] = test: as above
FT3469 [14] = test: as above
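For phenotypic distance (Euclidean, principal components) from DMSO controls in this document: cell Painting imaging in 384-well plates, CellProfiler features reduced to at least 20 principal components, Euclidean distance versus same-plate DMSO vehicle wells (0.1% v/v), median over six images per well.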
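For surviving fraction (nuclei count normalised to DMSO) in this document: nuclei counted by high-content imaging of Hoechst-stained cells in laminin-coated 384-well plates, relative to 0.1% DMSO vehicle wells, with staurosporine as cell-death control.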

Cc1ncc(CO)c(CO)c1O [Pyridoxine hydrochloride]
surviving fraction (E13 [1]; 4.1 nM): 0.907 | surviving fraction (E13 [1]; 12.3 nM): 0.973 | surviving fraction (E13 [1]; 37 nM): 0.968 | surviving fraction (E13 [1]; 111.1 nM): 1.04 | surviving fraction (E13 [1]; 333.3 nM): 1.02 | surviving fraction (E13 [1]; 1000 nM): 0.905 | surviving fraction (E13 [1]; 3000 nM): 1.08 | surviving fraction (E21 [2]; 4.1 nM): 0.9 | surviving fraction (E21 [2]; 12.3 nM): 1.04 | surviving fraction (E21 [2]; 37 nM): 1.02 | surviving fraction (E21 [2]; 111.1 nM): 1.03 | surviving fraction (E21 [2]; 333.3 nM): 0.92 | surviving fraction (E21 [2]; 1000 nM): 1.06 | surviving fraction (E21 [2]; 3000 nM): 1.03 | surviving fraction (E28 [3]; 4.1 nM): 0.967 | surviving fraction (E28 [3]; 12.3 nM): 1.04 | surviving fraction (E28 [3]; 37 nM): 0.991 | surviving fraction (E28 [3]; 111.1 nM): 0.922 | surviving fraction (E28 [3]; 333.3 nM): 0.975 | surviving fraction (E28 [3]; 1000 nM): 0.968 | surviving fraction (E28 [3]; 3000 nM): 1.09 | surviving fraction (E31 [4]; 4.1 nM): 0.944 | surviving fraction (E31 [4]; 12.3 nM): 1.04 | surviving fraction (E31 [4]; 37 nM): 1.03 | surviving fraction (E31 [4]; 111.1 nM): 1.1 | surviving fraction (E31 [4]; 333.3 nM): 1.03 | surviving fraction (E31 [4]; 1000 nM): 1.01 | surviving fraction (E31 [4]; 3000 nM): 0.903 | surviving fraction (E34 [5]; 4.1 nM): 0.949 | surviving fraction (E34 [5]; 12.3 nM): 0.918 | surviving fraction (E34 [5]; 37 nM): 1.19 | surviving fraction (E34 [5]; 111.1 nM): 1.07 | surviving fraction (E34 [5]; 333.3 nM): 0.943 | surviving fraction (E34 [5]; 1000 nM): 0.916 | surviving fraction (E34 [5]; 3000 nM): 1.06 | surviving fraction (E57 [6]; 4.1 nM): 1.03 | surviving fraction (E57 [6]; 12.3 nM): 0.99 | surviving fraction (E57 [6]; 37 nM): 1.01 | surviving fraction (E57 [6]; 111.1 nM): 0.965 | surviving fraction (E57 [6]; 333.3 nM): 1.07 | surviving fraction (E57 [6]; 1000 nM): 0.984 | surviving fraction (E57 [6]; 3000 nM): 0.981 | surviving fraction (FT3469 [7]; 4.1 nM): 0.987 | surviving fraction (FT3469 [7]; 12.3 nM): 0.951 | surviving fraction (FT3469 [7]; 37 nM): 0.972 | surviving fraction (FT3469 [7]; 111.1 nM): 0.985 | surviving fraction (FT3469 [7]; 333.3 nM): 1.05 | surviving fraction (FT3469 [7]; 1000 nM): 1.09 | surviving fraction (FT3469 [7]; 3000 nM): 0.987 | phenotypic distance (E13 [8]; 4.1 nM): 1.83 | phenotypic distance (E13 [8]; 12.3 nM): 0.627 | phenotypic distance (E13 [8]; 37 nM): 0.476 | phenotypic distance (E13 [8]; 111.1 nM): 0.757 | phenotypic distance (E13 [8]; 333.3 nM): 0.677 | phenotypic distance (E13 [8]; 1000 nM): 0.715 | phenotypic distance (E13 [8]; 3000 nM): 1.55 | phenotypic distance (E21 [9]; 4.1 nM): 0.627 | phenotypic distance (E21 [9]; 12.3 nM): 0.496 | phenotypic distance (E21 [9]; 37 nM): 0.428 | phenotypic distance (E21 [9]; 111.1 nM): 0.899 | phenotypic distance (E21 [9]; 333.3 nM): 0.724 | phenotypic distance (E21 [9]; 1000 nM): 0.617 | phenotypic distance (E21 [9]; 3000 nM): 0.536 | phenotypic distance (E28 [10]; 4.1 nM): 0.428 | phenotypic distance (E28 [10]; 12.3 nM): 0.769 | phenotypic distance (E28 [10]; 37 nM): 0.765 | phenotypic distance (E28 [10]; 111.1 nM): 0.622 | phenotypic distance (E28 [10]; 333.3 nM): 0.82 | phenotypic distance (E28 [10]; 1000 nM): 1.01 | phenotypic distance (E28 [10]; 3000 nM): 0.741 | phenotypic distance (E31 [11]; 4.1 nM): 1.57 | phenotypic distance (E31 [11]; 12.3 nM): 0.82 | phenotypic distance (E31 [11]; 37 nM): 0.958 | phenotypic distance (E31 [11]; 111.1 nM): 1.06 | phenotypic distance (E31 [11]; 333.3 nM): 0.654 | phenotypic distance (E31 [11]; 1000 nM): 0.523 | phenotypic distance (E31 [11]; 3000 nM): 0.738 | phenotypic distance (E34 [12]; 4.1 nM): 1.15 | phenotypic distance (E34 [12]; 12.3 nM): 0.917 | phenotypic distance (E34 [12]; 37 nM): 0.991 | phenotypic distance (E34 [12]; 111.1 nM): 1.16 | phenotypic distance (E34 [12]; 333.3 nM): 0.742 | phenotypic distance (E34 [12]; 1000 nM): 0.612 | phenotypic distance (E34 [12]; 3000 nM): 0.936 | phenotypic distance (E57 [13]; 4.1 nM): 1.25 | phenotypic distance (E57 [13]; 12.3 nM): 1.12 | phenotypic distance (E57 [13]; 37 nM): 0.554 | phenotypic distance (E57 [13]; 111.1 nM): 0.42 | phenotypic distance (E57 [13]; 333.3 nM): 0.699 | phenotypic distance (E57 [13]; 1000 nM): 0.559 | phenotypic distance (E57 [13]; 3000 nM): 0.776 | phenotypic distance (FT3469 [14]; 4.1 nM): 0.887 | phenotypic distance (FT3469 [14]; 12.3 nM): 0.632 | phenotypic distance (FT3469 [14]; 37 nM): 0.988 | phenotypic distance (FT3469 [14]; 111.1 nM): 0.539 | phenotypic distance (FT3469 [14]; 333.3 nM): 4.03 | phenotypic distance (FT3469 [14]; 1000 nM): 0.686 | phenotypic distance (FT3469 [14]; 3000 nM): 0.525

CCOC(=O)OC(C)OC1=C(C(=O)Nc2ccccn2)N(C)S(=O)(=O)c2ccccc21 (stereo unspecified) [Ampiroxicam]
surviving fraction (E13 [1]; 4.1 nM): 0.882 | surviving fraction (E13 [1]; 12.3 nM): 0.885 | surviving fraction (E13 [1]; 37 nM): 1.02 | surviving fraction (E13 [1]; 111.1 nM): 0.926 | surviving fraction (E13 [1]; 333.3 nM): 1.08 | surviving fraction (E13 [1]; 1000 nM): 0.895 | surviving fraction (E13 [1]; 3000 nM): 0.916 | surviving fraction (E21 [2]; 4.1 nM): 0.957 | surviving fraction (E21 [2]; 12.3 nM): 0.928 | surviving fraction (E21 [2]; 37 nM): 0.953 | surviving fraction (E21 [2]; 111.1 nM): 0.847 | surviving fraction (E21 [2]; 333.3 nM): 1.09 | surviving fraction (E21 [2]; 1000 nM): 0.883 | surviving fraction (E21 [2]; 3000 nM): 1.01 | surviving fraction (E28 [3]; 4.1 nM): 0.815 | surviving fraction (E28 [3]; 12.3 nM): 1.1 | surviving fraction (E28 [3]; 37 nM): 0.896 | surviving fraction (E28 [3]; 111.1 nM): 0.884 | surviving fraction (E28 [3]; 333.3 nM): 0.939 | surviving fraction (E28 [3]; 1000 nM): 1.08 | surviving fraction (E28 [3]; 3000 nM): 0.871 | surviving fraction (E31 [4]; 4.1 nM): 0.83 | surviving fraction (E31 [4]; 12.3 nM): 0.849 | surviving fraction (E31 [4]; 37 nM): 0.967 | surviving fraction (E31 [4]; 111.1 nM): 1 | surviving fraction (E31 [4]; 333.3 nM): 0.856 | surviving fraction (E31 [4]; 1000 nM): 1.02 | surviving fraction (E31 [4]; 3000 nM): 1.08 | surviving fraction (E34 [5]; 4.1 nM): 1.14 | surviving fraction (E34 [5]; 12.3 nM): 0.946 | surviving fraction (E34 [5]; 37 nM): 0.986 | surviving fraction (E34 [5]; 111.1 nM): 1.1 | surviving fraction (E34 [5]; 333.3 nM): 1.01 | surviving fraction (E34 [5]; 1000 nM): 0.932 | surviving fraction (E34 [5]; 3000 nM): 0.984 | surviving fraction (E57 [6]; 4.1 nM): 0.955 | surviving fraction (E57 [6]; 12.3 nM): 1.02 | surviving fraction (E57 [6]; 37 nM): 0.962 | surviving fraction (E57 [6]; 111.1 nM): 1.02 | surviving fraction (E57 [6]; 333.3 nM): 0.943 | surviving fraction (E57 [6]; 1000 nM): 1.06 | surviving fraction (E57 [6]; 3000 nM): 1.08 | surviving fraction (FT3469 [7]; 4.1 nM): 0.768 | surviving fraction (FT3469 [7]; 12.3 nM): 1.05 | surviving fraction (FT3469 [7]; 37 nM): 1.02 | surviving fraction (FT3469 [7]; 111.1 nM): 1.05 | surviving fraction (FT3469 [7]; 333.3 nM): 1.04 | surviving fraction (FT3469 [7]; 1000 nM): 1.08 | surviving fraction (FT3469 [7]; 3000 nM): 0.95 | phenotypic distance (E13 [8]; 4.1 nM): 0.946 | phenotypic distance (E13 [8]; 12.3 nM): 0.661 | phenotypic distance (E13 [8]; 37 nM): 0.814 | phenotypic distance (E13 [8]; 111.1 nM): 0.688 | phenotypic distance (E13 [8]; 333.3 nM): 0.952 | phenotypic distance (E13 [8]; 1000 nM): 0.72 | phenotypic distance (E13 [8]; 3000 nM): 0.529 | phenotypic distance (E21 [9]; 4.1 nM): 0.574 | phenotypic distance (E21 [9]; 12.3 nM): 0.804 | phenotypic distance (E21 [9]; 37 nM): 0.922 | phenotypic distance (E21 [9]; 111.1 nM): 0.659 | phenotypic distance (E21 [9]; 333.3 nM): 0.834 | phenotypic distance (E21 [9]; 1000 nM): 0.819 | phenotypic distance (E21 [9]; 3000 nM): 0.71 | phenotypic distance (E28 [10]; 4.1 nM): 1.28 | phenotypic distance (E28 [10]; 12.3 nM): 0.987 | phenotypic distance (E28 [10]; 37 nM): 0.538 | phenotypic distance (E28 [10]; 111.1 nM): 0.744 | phenotypic distance (E28 [10]; 333.3 nM): 0.444 | phenotypic distance (E28 [10]; 1000 nM): 0.516 | phenotypic distance (E28 [10]; 3000 nM): 0.705 | phenotypic distance (E31 [11]; 4.1 nM): 0.739 | phenotypic distance (E31 [11]; 12.3 nM): 0.998 | phenotypic distance (E31 [11]; 37 nM): 0.78 | phenotypic distance (E31 [11]; 111.1 nM): 0.734 | phenotypic distance (E31 [11]; 333.3 nM): 0.689 | phenotypic distance (E31 [11]; 1000 nM): 0.71 | phenotypic distance (E31 [11]; 3000 nM): 0.801 | phenotypic distance (E34 [12]; 4.1 nM): 0.789 | phenotypic distance (E34 [12]; 12.3 nM): 0.855 | phenotypic distance (E34 [12]; 37 nM): 0.505 | phenotypic distance (E34 [12]; 111.1 nM): 0.762 | phenotypic distance (E34 [12]; 333.3 nM): 0.521 | phenotypic distance (E34 [12]; 1000 nM): 0.542 | phenotypic distance (E34 [12]; 3000 nM): 0.73 | phenotypic distance (E57 [13]; 4.1 nM): 0.796 | phenotypic distance (E57 [13]; 12.3 nM): 0.83 | phenotypic distance (E57 [13]; 37 nM): 0.552 | phenotypic distance (E57 [13]; 111.1 nM): 0.54 | phenotypic distance (E57 [13]; 333.3 nM): 0.507 | phenotypic distance (E57 [13]; 1000 nM): 1.03 | phenotypic distance (E57 [13]; 3000 nM): 0.908 | phenotypic distance (FT3469 [14]; 4.1 nM): 0.638 | phenotypic distance (FT3469 [14]; 12.3 nM): 0.959 | phenotypic distance (FT3469 [14]; 37 nM): 0.379 | phenotypic distance (FT3469 [14]; 111.1 nM): 1.16 | phenotypic distance (FT3469 [14]; 333.3 nM): 0.73 | phenotypic distance (FT3469 [14]; 1000 nM): 1.03 | phenotypic distance (FT3469 [14]; 3000 nM): 0.924
